Measured values: ChEMBL document CHEMBL5096181, “Isoxazole derivatives as anticancer agent: A review on synthetic strategies, mechanism of action and SAR studies” (Eur J Med Chem, 2021)

Legend:
[1] = tested on: MCF7; assay: Cytotoxicity against human MCF7 cells assessed as cell growth inhibition and measured after 72 hrs by SRB assay; format: functional, cell-based; conditions: MCF7, 72 h
[2] = tested on: Huh-7; assay: Cytotoxicity against human Huh-7 cells assessed as cell growth inhibition and measured after 72 hrs by SRB assay; format: functional, cell-based; conditions: Huh-7, 72 h
[3] = tested on: Mahlavu; assay: Cytotoxicity against human Mahlavu cells assessed as cell growth inhibition and measured after 72 hrs by SRB assay; format: functional, cell-based
[4] = tested on: MCF7; assay: Cytotoxicity against human MCF7 cells assessed as cell growth inhibition by MTT assay; format: functional, cell-based
[5] = biological target: T1, Aromatase (Homo sapiens, UniProt P11511); assay: Inhibition of human recombinant aromatase expressed in baculovirus insect cell using 7-methoxy-trifluoromethyl coumarin (MFC) as substrate preincubated for 10 mins followed by substrate addition and measured for 30 mins by fluorescence based assay
T1 sequence (P11511 whole entry): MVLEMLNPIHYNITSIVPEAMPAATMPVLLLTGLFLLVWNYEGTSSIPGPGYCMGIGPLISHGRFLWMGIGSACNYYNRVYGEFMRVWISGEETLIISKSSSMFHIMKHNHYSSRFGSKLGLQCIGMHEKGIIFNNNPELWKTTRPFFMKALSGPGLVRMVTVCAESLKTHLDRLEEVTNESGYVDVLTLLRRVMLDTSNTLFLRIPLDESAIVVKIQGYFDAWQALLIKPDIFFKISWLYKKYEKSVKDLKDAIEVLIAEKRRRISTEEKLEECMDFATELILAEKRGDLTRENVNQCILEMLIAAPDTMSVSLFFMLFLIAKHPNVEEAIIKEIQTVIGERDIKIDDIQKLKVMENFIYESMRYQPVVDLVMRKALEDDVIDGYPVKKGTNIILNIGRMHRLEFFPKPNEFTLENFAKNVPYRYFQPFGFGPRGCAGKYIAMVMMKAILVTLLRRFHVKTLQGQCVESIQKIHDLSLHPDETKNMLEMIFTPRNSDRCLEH

[6] = biological target: T2, Estrogen receptor (Homo sapiens, UniProt P03372); assay: Inhibition of ERalpha (unknown origin) in MCF7 cells measured after 24 to 48 hrs by FRET assay; format: cell-based
T2 sequence (P03372 whole entry): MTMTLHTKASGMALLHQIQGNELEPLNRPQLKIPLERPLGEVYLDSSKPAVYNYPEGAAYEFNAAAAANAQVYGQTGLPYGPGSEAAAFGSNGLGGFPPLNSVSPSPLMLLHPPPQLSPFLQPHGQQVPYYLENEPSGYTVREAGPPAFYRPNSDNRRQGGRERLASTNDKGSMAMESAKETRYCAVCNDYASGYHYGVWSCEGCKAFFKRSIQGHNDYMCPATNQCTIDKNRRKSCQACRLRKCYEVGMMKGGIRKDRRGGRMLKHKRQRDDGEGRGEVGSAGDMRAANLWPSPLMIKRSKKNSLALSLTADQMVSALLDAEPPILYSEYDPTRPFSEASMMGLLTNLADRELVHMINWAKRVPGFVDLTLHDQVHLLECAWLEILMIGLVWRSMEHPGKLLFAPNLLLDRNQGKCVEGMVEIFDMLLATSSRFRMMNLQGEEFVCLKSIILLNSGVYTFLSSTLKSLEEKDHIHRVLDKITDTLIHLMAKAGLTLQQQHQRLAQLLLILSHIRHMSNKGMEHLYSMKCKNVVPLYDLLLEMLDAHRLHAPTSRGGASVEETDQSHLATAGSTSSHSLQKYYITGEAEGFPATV

[7] = biological target: Tubulin; assay: Inhibition of tubulin polymerization (unknown origin) by spectrophotometer based analysis; format: protein-complex assay, Homo sapiens
[8] = tested on: LNCaP C4-2B; assay: Antiproliferative activity against human LNCaP C4-2B cells assessed as cell growth inhibition by MTT assay; format: functional, cell-based
[9] = tested on: CWR22R; assay: Antiproliferative activity against human 22Rv1 cells assessed as cell growth inhibition by MTT assay; format: functional, cell-based
[10] = tested on: PC-3; assay: Antiproliferative activity against human PC-3 cells assessed as cell growth inhibition by MTT assay; format: functional, cell-based
[11] = tested on: LNCaP; assay: Antiproliferative activity against human LNCaP cells assessed as cell growth inhibition by MTT assay; format: functional, cell-based
[12] = tested on: MCF7; assay: Antiproliferative activity against human MCF7 cells assessed as inhibition of cell growth measured after 48 hrs by SRB assay; format: functional, cell-based; conditions: MCF7, 48 h
[13] = biological target: T3, Tyrosine-protein phosphatase non-receptor type 2 (Homo sapiens, UniProt P17706); assay: Inhibition of TCPTP (unknown origin) by SpectraMax 340 microplate reader Analysis
T3 sequence (P17706 whole entry): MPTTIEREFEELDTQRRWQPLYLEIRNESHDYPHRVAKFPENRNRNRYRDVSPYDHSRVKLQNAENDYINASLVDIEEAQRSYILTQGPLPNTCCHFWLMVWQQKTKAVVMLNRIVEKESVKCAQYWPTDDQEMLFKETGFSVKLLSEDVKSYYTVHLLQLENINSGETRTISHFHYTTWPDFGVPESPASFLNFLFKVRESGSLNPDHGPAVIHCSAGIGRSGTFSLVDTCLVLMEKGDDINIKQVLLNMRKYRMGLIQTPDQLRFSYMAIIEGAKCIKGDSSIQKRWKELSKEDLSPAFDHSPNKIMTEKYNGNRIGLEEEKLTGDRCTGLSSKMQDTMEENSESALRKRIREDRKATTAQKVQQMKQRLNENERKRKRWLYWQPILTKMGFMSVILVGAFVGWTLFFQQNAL

[14] = biological target: T4, Tyrosine-protein phosphatase non-receptor type 1 (Homo sapiens, UniProt P18031); assay: Inhibition of PTP1B (unknown origin) by SpectraMax 340 microplate reader Analysis
T4 sequence (P18031 whole entry): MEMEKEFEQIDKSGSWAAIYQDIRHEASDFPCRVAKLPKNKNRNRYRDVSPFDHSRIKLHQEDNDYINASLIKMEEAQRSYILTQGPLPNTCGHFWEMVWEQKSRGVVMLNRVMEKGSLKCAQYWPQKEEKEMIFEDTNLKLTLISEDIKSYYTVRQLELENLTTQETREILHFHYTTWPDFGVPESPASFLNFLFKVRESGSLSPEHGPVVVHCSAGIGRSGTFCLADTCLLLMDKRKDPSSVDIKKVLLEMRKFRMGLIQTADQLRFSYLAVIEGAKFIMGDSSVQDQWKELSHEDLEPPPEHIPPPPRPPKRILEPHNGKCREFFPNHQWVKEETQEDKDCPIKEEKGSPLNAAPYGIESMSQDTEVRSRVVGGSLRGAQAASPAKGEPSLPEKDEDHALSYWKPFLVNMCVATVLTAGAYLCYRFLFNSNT

SMILES | IC50 [1] | IC50 [2] | IC50 [3] | further results
O=S(=O)(Nc1ccc(-c2cn[nH]c2)cc1)c1ccc(Cl)cc1 | 50 µM | – | – | –
FC(F)(F)c1ccc(CN2CCN(c3cc(-c4ccccc4)on3)CC2)cc1 | 19.1 µM | 17.1 µM | 14.1 µM | –
Nc1nn(Cc2cc(-c3cccc(C(F)(F)F)c3)no2)c2nc(-c3cccs3)cc(C(F)(F)F)c12 | – | – | – | IC50 [4]: 13.4 µM
Cc1c(-c2nocc2C(=O)SC#N)c(=O)n(-c2ccccc2)n1C | – | – | – | IC50 [5]: 0.0023 µM
CS(=O)(=O)c1ccc(-c2cc(N3CCN(Cc4ccc(C(F)(F)F)cc4)CC3)no2)cc1 | 2.9 µM | 4.2 µM | 26 µM | –
COc1ccc(C2CC(c3c(-c4ccc([N+](=O)[O-])cc4)noc3C)=NN2C(N)=S)cc1 (configuration not stated) | – | – | – | IC50 [4]: 4.48 µg/mL
C#Cc1cccc(Nc2ncnc3cc(OCCOC)c(OCCOC)cc23)c1 [ERLOTINIB] | 4.1 µM | – | – | –
COc1onc(-c2ccc(O)cc2)c1-c1oc2ccccc2c(=O)c1O | – | – | – | IC50 [6]: 91.1 µM
COc1cc(N(Cc2c(C)noc2C)C(=O)CSc2nc3ccccc3s2)cc(OC)c1OC | – | – | – | IC50 [7]: 2.87 µM; IC50 [8]: 2.04 µM; IC50 [9]: 2.13 µM; IC50 [10]: 2.81 µM; IC50 [11]: 4.31 µM
Cc1onc(-c2ccc([N+](=O)[O-])cc2)c1C1=NN(C(N)=S)C(c2ccc(Cl)cc2)C1 (configuration not stated) | – | – | – | IC50 [4]: 5.42 µg/mL
Fc1ccc(-c2cc(N3CCN(Cc4ccc(C(F)(F)F)cc4)CC3)no2)cc1 | 11.9 µM | 5.3 µM | 6.2 µM | –
COc1cc(N(C(=O)CSc2nc3ccccc3s2)c2ccncc2)cc(OC)c1OC | – | – | – | IC50 [9]: 5.09 µM
COc1ccc(-c2cc(-c3c[nH]c4ccccc34)on2)cc1 | – | – | – | IC50 [12]: 2.55 µM
O=C(O)c1cccc(/C=C/c2ccc(Oc3cnoc3-c3ccccc3Cl)cc2)c1 | – | – | – | IC50 [13]: 36.2 µM; IC50 [14]: 1.75 µM
C[C@H](CCC(=O)O)[C@H]1CC[C@H]2[C@@H]3CC[C@@H]4C[C@H](O)CC[C@]4(C)[C@H]3CC[C@]12C [LITHOCHOLIC ACID] | – | – | – | IC50 [13]: 6.12 µM; IC50 [14]: 2.71 µM
Oc1ccc(-c2cc(N3CCN(Cc4ccc(C(F)(F)F)cc4)CC3)no2)cc1 | 8.3 µM | 3.8 µM | 7.5 µM | –
Cc1noc(C)c1COc1ccc(-c2cc(N3CCN(Cc4ccc(C(F)(F)F)cc4)CC3)no2)cc1 | 1.6 µM | 1.2 µM | 2.2 µM | –
CCCOc1ccc(-c2cc(N3CCN(Cc4ccc(C(F)(F)F)cc4)CC3)no2)cc1 | 4.9 µM | 8.8 µM | 7.7 µM | –
O=S(=O)(Nc1ccc(-c2cnoc2)cc1)c1ccc(Cl)cc1 | 5.7 µM | – | – | –
